Reference: patent EP2921176A2, “PHARMACEUTICAL COMPOSITION FOR TREATMENT OF PROSTATIC HYPERPLASIA” (priority 2012, dated 2014)
Read-outs that look alike come from different tables or passages of the source.

Experiments:
[1] = system: prostate gland (PG) in rats with the benign prostatic hyperplasia (BPH); format: in vivo; conditions: for Mass of PG, mg At end of experiment / Mass of PG, mg Initial / MF PG (mass factor of the PG): rats with BPH
Description: The effect of the new mixtures of peptides on the mass of the prostate of rats in the model of benign prostate hyperplasia caused by testosterone propionate, was studied on 98 white non-pedigree male rats (mass 220-280 g at the beginning of the experiment), and 10 white non- pedigree male rats with a mass of 22-26 g (acute toxicity was assessed in those animals in a separate series o experiments).
J. Med. Food., 2007, Vol. 10, No 4, p. 628-635; Liu H.P., Chen G.L., Liu P., Xu X.P. «Amlodipine alone or combined with terazosin improves lower urinary tract disorder in rat models of benign prostatic hyperplasia or detrusor instability: focus on detrusor overactivity". BJU Int., 2009, Vol. 104, No 11, p. 1752-1757).
(§1) The animals in those groups were injected intramuscularly (i/m) a mixture of peptides in doses of 50, 150 and 600 mcg/kg/day, alpha1-adrenergic blocker Doxazosin (Zoxon, Zentiva a.s., Czech Republic) in the dose of 1 mg/kg/day and 2nd type 5 alpha-reductase inhibitor Finasteride (Proscar, Merck Sharp & Dohme, The Netherlands) in the dose of 10 mg/kg/day in the stomach (via an intragastral sonde) for 18 days (from day 4), and also the well-known homeopathic drug Prostatine (OOO «Homeofarma», Russia) with 5 pellets into the stomach for 18 days. The rats in the control group received intramuscularly only an isotonic solution of sodium chloride (NaCl) in equivolume quantities.
Extraction of the prostatic gland (PG) for morphological (light-optical) analysis was done both before and after the reproduction of BPH (on days 22 and 23). The rats were decapitated under general anesthesia with ether, following which the prostatic gland was extracted and weighed (analytical balance «Sartogosm LV 120-A», Russia, inaccuracy-0.5 mg).

[2] = system: prostate gland of rats with BPH; assay: Morphological and morphometric (light-optical) analysis of the prostate gland in the rat BPH model; format: in vivo; set-up: key to COLL (score estimate of the content of collagen in the stroma, median): 0: Absent in the field of vision; 1: Thin friable fibers; 2: Thin oriented bunches; 3: Dense interlayers; 4: Zones of fibrosis; conditions: for EPIT (volume fraction of the epithelium) / LUMEN (volume fraction of acinar lumens) / STROMA (volume fraction of stroma): mean ± standard error of the mean
Description: The material was subjected to standard histological processing in accordance with Example 2. Sections were stained according to Van Gieson, as well as with hematoxyline and eosin. In addition to the morphological description of the preparations, a quantitative analysis of the most important morphological parameters of the PG (Table 2) to assess the dynamics of morphological changes. The prostate's functional status (fibrosis, epithelium hyperplasia, retention of the prostatic fluid in acinuses) can be assessed using the epithelium/stroma and epithelium/duct indices. Table 2. Classes of morphological analysis
The morphometric analysis was conducted using a Leica DM2500 microscope fitted with a digital photographic camera. The digital images were used to assess structural changes in PG tissues. Volume fractions of acinuses, stroma and epithelium were defined by point counting. Scoring was used to more accurately determine the quantity of collagen fibers because of their small percentage share (around 1-2%) (Table 3). Table 3. The criteria for scoring the quantity of collagen fibers
A comparison of the groups in terms of different parameters using the Kruskal-Wallis one-way analysis of variance by ranks, Dan and Wilcoxon-Mann-Whitney test data were obtained on intergroup differences at the set level of significance of p < 0,05. […]
as §1
The material was subjected to standard histological processing. For light-optical analysis, pieces of the PG were fixed with 10% neutral formalin, following which histological sections were prepared. The sections were stained according to Van Gieson, and also with hematoxyline and eosin. In addition to morphological description of the microsections, a quantitative evaluation of the most important morphological parameters of the PG for the purpose of objective assessment of the dynamics of morphological changes. A Leica DM2500 microscope with a digital photographic camera was used for morphometric analysis. The digital images were used to assess structural changes in the PG's tissues.

prostate = conditions: after 1 to 3 months; cited from earlier work
[3] = 1 mg/kg/day in stomach for 18 days
[4] = 10 mg/kg/day in stomach for 18 days

SMILES: COc1cc2nc(N3CCN(C(=O)C4COc5ccccc5O4)CC3)nc(N)c2cc1OC (stereo not drawn) [Doxazosin]
- Mass of PG, mg At end of experiment [1, 3]: 7.7e+10 ± 7e+09 pg
- Mass of PG, mg Initial [1, 3]: 2.38e+11 ± 1.8e+10 pg
- MF PG (mass factor of the PG) ([1]; 1 mg/kg/day in the stomach for 18 days): virtually unreduced
- COLL (score estimate of the content of collagen in the stroma, median) [2, 3]: 2
- EPIT/LUMEN (ratio of share of epithelium to share of acinar lumens) [2, 3]: 36.62 ± 1.19
- EPIT/STR (ratio of share of epithelium to share of stroma) [2, 3]: 75.55 ± 1.34
- morphological picture of stroma [2, 3]: Inflammation and edema were completely absent in the Doxazosin group, but there were zones of fibrosis
- structure (morphology) of epithelium [2, 3]: acinuses covered with epithelium with normal morphology alternated with acinuses with hyperplastic epithelium
- EPIT (volume fraction of the epithelium) [2, 3]: 19.79 ± 0.84%
- LUMEN (volume fraction of acinar lumens) [2, 3]: 54.03 ± 1.05%
- STROMA (volume fraction of stroma) [2, 3]: 26.19 ± 0.93%

SMILES: C[C@]12C=CC(=O)N[C@@H]1CC[C@@H]1[C@@H]2CC[C@]2(C)[C@@H](C(=O)Nc3cc(C(F)(F)F)ccc3C(F)(F)F)CC[C@@H]12 [Dutasteride]
- reduction of the size of the prostate (prostate): more than 20%

SMILES: CC(C)(C)NC(=O)[C@H]1CC[C@H]2[C@@H]3CC[C@H]4NC(=O)C=C[C@]4(C)[C@H]3CC[C@]12C [Finasteride]
- reduced the mass of the PG (times, compared to the control) ([1]; 10 mg/kg/day in stomach for 18 days, p<0,05): 1.4 times
- MF PG (mass factor of the PG) [1, 4]: 65±5 mg/100 r mass of the rat
- Mass of PG, mg At end of experiment [1, 4]: 6.5e+10 ± 5e+09 pg
- Mass of PG, mg Initial [1, 4]: 1.99e+11 ± 1.4e+10 pg
- COLL (score estimate of the content of collagen in the stroma, median) [2, 4]: 1
- EPIT/LUMEN (ratio of share of epithelium to share of acinar lumens) [2, 4]: 47.31 ± 1.49
- EPIT/STR (ratio of share of epithelium to share of stroma) [2, 4]: 53.41 ± 1.55
- morphological picture of stroma [2, 4]: highly edemous
- structure (morphology) of epithelium [2, 4]: caused injury and death of epithelial cells
- EPIT (volume fraction of the epithelium) [2, 4]: 20.06 ± 0.95%
- LUMEN (volume fraction of acinar lumens) [2, 4]: 42.40 ± 1.17%
- STROMA (volume fraction of stroma) [2, 4]: 37.55 ± 1.14%
